Assays:
Homo sapiens [1] = species on record: Homo sapiens; test: Selectivity index, ratio of Ki for human M1 muscarinic receptor to Ki for human M5 muscarinic receptor
[2] = molecular target: T1, Muscarinic acetylcholine receptor M5 (Homo sapiens, UniProt P08912); test: Displacement of [3H]NMS from human M5 muscarinic receptor expressed in CHO-K1 cells; format: cell-based
T1 sequence (P08912 whole entry): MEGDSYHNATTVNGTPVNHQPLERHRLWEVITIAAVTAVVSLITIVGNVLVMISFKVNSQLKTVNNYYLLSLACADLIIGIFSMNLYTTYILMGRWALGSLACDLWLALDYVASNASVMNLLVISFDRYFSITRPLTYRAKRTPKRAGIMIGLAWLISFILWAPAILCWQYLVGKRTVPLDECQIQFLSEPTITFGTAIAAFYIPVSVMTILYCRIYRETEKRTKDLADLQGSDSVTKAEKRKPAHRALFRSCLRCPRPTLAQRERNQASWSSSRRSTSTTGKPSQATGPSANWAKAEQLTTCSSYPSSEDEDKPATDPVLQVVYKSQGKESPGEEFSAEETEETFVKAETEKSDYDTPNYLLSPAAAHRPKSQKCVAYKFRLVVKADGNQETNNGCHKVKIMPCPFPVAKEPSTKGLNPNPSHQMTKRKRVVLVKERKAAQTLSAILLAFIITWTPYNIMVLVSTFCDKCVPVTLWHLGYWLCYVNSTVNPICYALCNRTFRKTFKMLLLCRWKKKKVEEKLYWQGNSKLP

[3] = molecular target: T2, Muscarinic acetylcholine receptor M1 (Homo sapiens, UniProt P11229); test: biochemical; format: cell-based, CHO-K1
T2 sequence (P11229 whole entry): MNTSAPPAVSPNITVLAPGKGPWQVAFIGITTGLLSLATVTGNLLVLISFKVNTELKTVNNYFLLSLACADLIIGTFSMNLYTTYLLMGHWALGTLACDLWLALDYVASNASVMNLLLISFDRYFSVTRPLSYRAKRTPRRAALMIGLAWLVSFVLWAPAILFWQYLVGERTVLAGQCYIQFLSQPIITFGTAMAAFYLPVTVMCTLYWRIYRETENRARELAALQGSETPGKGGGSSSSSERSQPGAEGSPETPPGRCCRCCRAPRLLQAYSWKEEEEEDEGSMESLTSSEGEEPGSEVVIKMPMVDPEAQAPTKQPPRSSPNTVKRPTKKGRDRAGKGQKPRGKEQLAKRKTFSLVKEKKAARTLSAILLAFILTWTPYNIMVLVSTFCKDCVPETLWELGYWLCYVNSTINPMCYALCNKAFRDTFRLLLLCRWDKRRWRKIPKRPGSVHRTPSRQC

Homo sapiens [4] = species on record: Homo sapiens; test: Selectivity index, ratio of Ki for human M4 muscarinic receptor to Ki for human M5 muscarinic receptor
Homo sapiens [5] = species on record: Homo sapiens; test: Selectivity index, ratio of Ki for human M3 muscarinic receptor to Ki for human M5 muscarinic receptor
[6] = molecular target: T3, Muscarinic acetylcholine receptor M4 (Homo sapiens, UniProt P08173); test: Displacement of [3H]NMS from human M4 muscarinic receptor expressed in CHO-K1 cells; format: cell-based
T3 sequence (P08173 whole entry): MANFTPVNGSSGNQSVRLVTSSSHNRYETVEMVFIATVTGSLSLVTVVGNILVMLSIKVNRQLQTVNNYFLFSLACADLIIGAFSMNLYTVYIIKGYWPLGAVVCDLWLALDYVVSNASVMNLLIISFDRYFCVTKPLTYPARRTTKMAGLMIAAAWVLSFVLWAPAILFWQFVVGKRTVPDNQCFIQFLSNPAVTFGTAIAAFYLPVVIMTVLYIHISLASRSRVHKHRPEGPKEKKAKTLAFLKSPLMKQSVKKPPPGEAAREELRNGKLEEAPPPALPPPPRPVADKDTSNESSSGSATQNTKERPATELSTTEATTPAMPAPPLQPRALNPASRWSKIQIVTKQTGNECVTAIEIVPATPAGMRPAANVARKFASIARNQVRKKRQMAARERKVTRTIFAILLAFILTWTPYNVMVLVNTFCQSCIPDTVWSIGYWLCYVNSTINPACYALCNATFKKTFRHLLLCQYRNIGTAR

[7] = molecular target: Muscarinic acetylcholine receptor M3 (Homo sapiens, UniProt P20309); test: Displacement of [3H]NMS from human M3 muscarinic receptor expressed in CHO-K1 cells; format: cell-based
Sequence of Muscarinic acetylcholine receptor M3 (P20309 whole entry): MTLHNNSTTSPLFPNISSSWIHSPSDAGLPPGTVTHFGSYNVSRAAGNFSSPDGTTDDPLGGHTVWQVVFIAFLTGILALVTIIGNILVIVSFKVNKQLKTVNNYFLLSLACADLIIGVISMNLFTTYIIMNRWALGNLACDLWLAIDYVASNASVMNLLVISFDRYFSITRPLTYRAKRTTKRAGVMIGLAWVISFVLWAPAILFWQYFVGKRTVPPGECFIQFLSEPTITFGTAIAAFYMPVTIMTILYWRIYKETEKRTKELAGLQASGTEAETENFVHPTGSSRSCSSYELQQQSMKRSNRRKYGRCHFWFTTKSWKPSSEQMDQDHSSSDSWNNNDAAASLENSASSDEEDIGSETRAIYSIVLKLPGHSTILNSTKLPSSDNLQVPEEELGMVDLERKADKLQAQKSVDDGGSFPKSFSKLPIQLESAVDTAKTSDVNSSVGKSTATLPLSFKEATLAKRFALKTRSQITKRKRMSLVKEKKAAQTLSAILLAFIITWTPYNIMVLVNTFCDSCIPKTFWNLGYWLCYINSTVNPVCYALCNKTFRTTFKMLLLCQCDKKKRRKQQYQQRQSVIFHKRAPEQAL

[8] = molecular target: T4, Muscarinic acetylcholine receptor M2 (Homo sapiens, UniProt P08172); test: Displacement of [3H]NMS from human M2 muscarinic receptor expressed in CHO-K1 cells; format: cell-based
T4 sequence (P08172 whole entry): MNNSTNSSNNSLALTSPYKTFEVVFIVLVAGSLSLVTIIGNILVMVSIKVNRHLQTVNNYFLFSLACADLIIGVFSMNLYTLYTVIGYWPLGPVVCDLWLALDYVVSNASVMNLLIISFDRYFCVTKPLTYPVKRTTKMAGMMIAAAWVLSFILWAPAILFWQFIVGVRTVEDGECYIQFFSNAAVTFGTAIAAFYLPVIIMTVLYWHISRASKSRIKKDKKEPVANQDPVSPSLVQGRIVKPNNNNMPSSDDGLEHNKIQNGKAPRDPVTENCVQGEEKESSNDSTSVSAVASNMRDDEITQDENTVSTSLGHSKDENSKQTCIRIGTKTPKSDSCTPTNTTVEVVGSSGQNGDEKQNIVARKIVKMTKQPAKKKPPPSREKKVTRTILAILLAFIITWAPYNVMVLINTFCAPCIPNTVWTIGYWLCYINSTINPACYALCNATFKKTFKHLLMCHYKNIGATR

| SMILES | Ratio Ki (Homo sapiens [1]) | Ki [2] | Ki [3] | Ratio Ki (Homo sapiens [4]) | Ratio Ki (Homo sapiens [5]) | Ki [6] | Ki [7] | Ki [8] |
| --- | --- | --- | --- | --- | --- | --- | --- | --- |
| CN1CCC(c2ccccc2)=C(C(=O)OCCc2ccc(S(C)(=O)=O)cc2)C1 | 4.6 | 110 nM | 510 nM |  |  |  |  |  |
| COc1ccccc1C1=C(C(=O)OCCc2ccc3c(c2)CCO3)CN(C)CC1 | 3.5 | 2410 nM | 8350 nM |  |  |  |  |  |
| CCOC(=O)C1=C(c2ccccc2)CCN(CCc2ccc3c(c2)OCO3)C1 |  | > 100000 nM | > 100000 nM |  |  |  |  |  |
| CN1CCC(C(=O)OCCc2ccc3c(c2)CCO3)=C(c2ccccc2)C1 |  | 1140 nM | 210 nM |  |  |  |  |  |
| CCN1CCC(c2ccccc2)=C(C(=O)OCCc2ccc3c(c2)OCO3)C1 | 0.7 | 280 nM | 200 nM |  |  |  |  |  |
| CN1CCC(c2ccccc2)=C(C(=O)OCCc2cccc3ccccc23)C1 | 4.8 | 5040 nM | 24400 nM | > 20 | > 20 | > 100000 nM | > 100000 nM | > 100000 nM |
| CCN1CCC(c2ccccc2)=C(C(=O)OCCc2cc(OC)c(OC)c(OC)c2)C1 |  | > 100000 nM | > 100000 nM |  |  |  |  |  |
| COc1ccc(CCOC(=O)C2=C(c3ccccc3)CCN(C)C2)cc1C | 3.6 | 740 nM | 2700 nM |  |  |  |  |  |
| CCOC(=O)C1=C(c2ccccc2)CCN(CCc2ccc(OC)cc2)C1 |  | > 100000 nM | > 100000 nM |  |  |  |  |  |
| COC(COC(=O)C1=C(c2ccccc2)CCN(C)C1)c1ccccc1 (configuration not stated) |  | > 100000 nM | > 100000 nM |  |  |  |  |  |
| CCN1CCC(c2ccccc2)=C(C(=O)OCc2ccc(OC)cc2)C1 | 0.8 | 3610 nM | 3060 nM |  |  |  |  |  |
| CCCN1CCC(c2ccccc2)=C(C(=O)OCCc2ccc3c(c2)CCO3)C1 |  | > 100000 nM | > 100000 nM |  |  |  |  |  |
| CCCCN1CCC(c2ccccc2)=C(C(=O)OCCc2ccc3c(c2)CCO3)C1 |  | > 100000 nM | > 100000 nM |  |  |  |  |  |
| COc1ccc(CCOC(=O)C2=C(c3ccccc3)CCN(Cc3ccc(OC)cc3)C2)cc1 |  | > 100000 nM | > 100000 nM |  |  |  |  |  |
| COc1cccc(C2=C(C(=O)OCCc3ccc4c(c3)CCO4)CN(C)CC2)c1 | 0.9 | 2680 nM | 2430 nM |  |  |  |  |  |
| CCOC(=O)C1=C(c2ccccc2)CCN(CCc2ccc3c(c2)CCO3)C1 |  | > 100000 nM | > 100000 nM |  |  |  |  |  |
| CCOC(=O)C1=C(c2ccccc2)CCN(C2CCN(C(=O)c3c(Cl)cccc3Cl)CC2)C1 |  | > 100000 nM | > 100000 nM |  |  |  |  |  |
| CN1CCC(c2ccccc2F)=C(C(=O)OCCc2ccc3c(c2)CCO3)C1 | 7 | 740 nM | 5270 nM | 7.8 | 6.6 | 5740 nM | 4890 nM | 540 nM |
| CCN1CCC(c2ccccc2)=C(C(=O)OCCc2cccc(OC)c2)C1 | 3.1 | 150 nM | 470 nM |  |  |  |  |  |
| COc1ccc(CCOC(=O)C2=C(c3ccccc3)CCN(C)C2)cc1 | 0.7 | 30 nM | 20 nM |  |  |  |  |  |
| CCN1CCC(c2ccccc2)=C(C(=O)OCCc2ccsc2)C1 | 0.7 | 190 nM | 140 nM |  |  |  |  |  |
| CCN1CCC(c2ccc(F)cc2)=C(C(=O)OCCc2ccc3c(c2)CCO3)C1 | 3.4 | 2350 nM | 7900 nM |  |  |  |  |  |
| CN1CCC(c2ccccc2)=C(C(=O)OCCc2cccc(F)c2)C1 | 4.1 | 80 nM | 330 nM |  |  |  |  |  |
| CCN1CCC(c2ccccc2)=C(C(=O)OCCc2ccc([N+](=O)[O-])cc2)C1 | 1.8 | 440 nM | 810 nM |  |  |  |  |  |
